According to ChEMBL document CHEMBL3596190, “Non-classical -carbonic anhydrase inhibitors-towards novel anti-mycobacterials” (Medchemcomm, 2014):
≈ marks a conversion by molar mass, not a printed value. Calls of active or inactive are those of the source. No cut-off for these calls is given here.

Tests used:
[1] = test system: Mycobacterium tuberculosis; assay: Effect on quaternary structure of un-tagged Mycobacterium tuberculosis beta-carbonic anhydrase Rv3588c at pH 6.0 by size exclusion chromatography
[2] = test system: Mycobacterium tuberculosis; assay: Growth inhibition of Mycobacterium tuberculosis H37Ra incubated for 7 days by resazurin dye based fluorescence assay; type: functional; conditions: 168 h
[3] = test system: BL21-AI; assay: Inhibition of His6-tagged Mycobacterium tuberculosis Rv3588c expressed in Escherichia coli BL21-AI cells assessed as increase in Hill coefficient at 25 uM by stopped flow CO2 hydration assay based Michaelis-Menten analysis
[4] = test system: Mycobacterium tuberculosis; assay: Effect on quaternary structure of un-tagged Mycobacterium tuberculosis beta-carbonic anhydrase Rv3588c at pH 8.5 by size exclusion chromatography
[5] = Inhibition of His6-tagged Mycobacterium tuberculosis Rv3588c expressed in Escherichia coli BL21-AI cells by stopped flow CO2 hydration assay based Michaelis-Menten analysis; type: cell-based
[6] = target: T1, Beta-carbonic anhydrase 1 (Mycobacterium tuberculosis) (UniProt P9WPJ7); assay: Binding affinity to His6-tagged Mycobacterium tuberculosis Rv1284 expressed in Escherichia coli BL21-AI cells assessed as […] in melting temperature at 250 uM by SYPRO orange dye based differential scanning fluorimetry
T1 sequence (whole entry): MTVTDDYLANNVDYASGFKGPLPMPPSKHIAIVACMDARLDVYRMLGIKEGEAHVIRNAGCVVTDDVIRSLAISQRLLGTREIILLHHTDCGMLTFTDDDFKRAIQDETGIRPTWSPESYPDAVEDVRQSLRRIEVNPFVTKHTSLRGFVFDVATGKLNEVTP

[7] = test system: BL21-AI; conditions: Mycobacterium tuberculosis, at 25 µM
Description: Inhibition of His6-tagged Mycobacterium tuberculosis Rv3588c expressed in Escherichia coli BL21-AI cells assessed as reduction in Vmax at 25 uM by stopped flow CO2 hydration assay based Michaelis-Menten analysis

Row | Compound | Activity [1] | MIC90 [2] [µM] | inhibition [3] | Activity [4] | Ki [5] [µM] | deltaTm [6] [K] | inhibition [7]
1 | C=C1CC[C@@H](C/C=C(\C)CC/C=C(/CCC=C(C)C)C(=O)O)C(C)(C)[C@H]1CC/C(C)=C/C(=O)O | inactive | > 50 | Active | inactive | 10 | 5.4 | Active
2 | N#C[S-].[Na+] [THIOCYANATE SODIUM] | – | – | – | – | 8 | – | Active
3 | COc1c(Br)cc(C/C(=N\O)C(=O)NCCCC(=O)N(C)CCCCN(C)CCCNC(=O)/C(Cc2cc(Br)c(OC)c(Br)c2)=N/O)cc1Br [SPERMATINAMINE] | inactive | 6.3 (≈ 6.03 µg/mL) | Active | inactive | 23 | 1.2 | –
4 | COc1c(Br)cc(/C=C/C(=O)NCCCNCCCCNCCCNC(=O)/C=C/c2cc(Br)c(OC)c(Br)c2)cc1Br [IANTHELLIFORMISAMINE C] | inactive | 12.5 (≈ 10.5 µg/mL) | Active | inactive | 16 | 1 | Active
